Results taken from paper PMC3068151 (PLoS ONE, 2011).

Tests used:
[1] = test system: PC3 cells; test: PC3 cell binding / adhesion assay (MTT readout); type: cell-based, human
Procedure: 96 well ELISA high binding plates were incubated overnight at 4°C with ephrinA1-Fc 1 µg/cm^2, 100 µl per well. The plates were washed three times with PBS and blocked for 1 hour with BSA 1%. Cells were treated with proper concentration of substance or DMSO 0.5% for 30 minutes in vials on a shaker. After that, plates were washed with PBS and incubated with 100 µl 5×10^5 cells/ml for 1 hour at 37°C. Finally, plates were washed with PBS and adhering cells were quantified using MTT colorimetric assay.
96-wells plates for cell culture were untretaed (A) or coated with 1 µg/cm^2 ephrinA1-Fc (B) overnight. PC3 cells were treated with the indicated compounds for 30 minutes in a tube and let to adhere for 60 minutes on the wells. Cell adhesion is reported normalizing adhesion of Fc to 100%. […] Data are the means of at least three independent experiment ± st. err. One-way ANOVA followed by Dunnet's post test was performed comparing Fc to all other column. No significant differences were detected for data in graph A. *, p<0.05, **,p<0.01.

[2] = test system: VEGFR; test: VEGFR activity, cellular dielectric spectroscopy in HUVE cells; type: cell-based; conditions: 100 µM, 0.1 nM VEGF
Procedure: Impedance measurement was monitored for 10 minutes. VEGF receptor tyrosine kinase inhibitor II (Calbiochem-Merck, Darmstadt, Germany) was used as a standard reference.
(§1) These assays were performed at CEREP (Celle L'Evescault, France).
(§2) A, B) EGFR phosphorylation was induced by 30 ng/ml and 10 ng/ml EGF on PC3 (A) and HT29 (B) cells, respectively. […] Data are the means of two experiments ± st. err.

[3] = target: T1, IGFR1β (Homo sapiens, UniProt P08069); test: IGFR1β activity, alpha Technology; type: cell-based; conditions: 100 µM, 5 nM IGF1
T1 construct: in HepG2 or A431 cells, respectively; endogenous in cells; host or cells: A431 according to b24; HepG2 according to the order in the legend b55
Procedure: Cells were stimulated with 5 nM IGF1 or 100 nM insulin for 10 minutes, lysed and a fluorescence acceptor (alphaLISA protein A beads coated with anti-phospho-IRKβ or -IGFR1β) added for 2 hours. A fluorescence donor (streptavidin coupled-beads) coated with an antibody towards IRKβ or IGFR1β was incubated for 2 hours and the signal was measured at λex = 680 nm and λem = 500 nm and 600 nm using a microplate reader (EnVision, Perkin Elmer, Waltham, MA, USA).
as §1, §2

[4] = test system: PC3 cells; test: PC3 cell rounding assay; type: cell-based, human; conditions: for inhibition of ephrinA1-Fc induced PC3 cell rounding: 0.5 µg/ml ephrinA1-Fc, 30 minutes
Procedure: PC3 cells were grown on 12-well culture plates and starved overnight in Ham-F12 medium with 0.5% FBS. DMSO (final concentration 0.25%) or compounds were incubated for 20 min, before stimulation with 0.5 µg/ml ephrinA1-Fc or Fc for 30 minutes. During this time cells were observed and pictures were taken from the same field, before and after incubation, under a microscope (Leica, DM IL). Cell rounding was evaluated using ImageJ program.
Cell images were collected from the same field at time 0 and 30 minutes using a digital camera mounted on a Leica DM IL microscope. […] Cells, which rounded their shape and having an area less than 20% of the initial value, were scored as retracting. Data are the means of at least three independent experiments ± st. err. One-way ANOVA followed by Dunnet's post test was performed comparing ephrinA1-Fc+DMSO to all other columns. *, p<0.05, **,p<0.01.

[5] = target: T2, EphA2-ephrinA1 binding (Mus musculus, UniProt Q03145); test: ELISA EphA2-ephrinA1 binding (displacement and saturation); conditions: 200 µM for 1 hour, some wells washed before adding 50 ng/ml ephrinA1-Fc
T2 construct: we immobilized EphA2-Fc- ectodomain on proper ELISA plates; purchased R&D systems 639-A2 (EphA2-Fc); BT602 (biotinylated ephrinA1-Fc)
T2 sequence (Q03145 26-538 limits assumed): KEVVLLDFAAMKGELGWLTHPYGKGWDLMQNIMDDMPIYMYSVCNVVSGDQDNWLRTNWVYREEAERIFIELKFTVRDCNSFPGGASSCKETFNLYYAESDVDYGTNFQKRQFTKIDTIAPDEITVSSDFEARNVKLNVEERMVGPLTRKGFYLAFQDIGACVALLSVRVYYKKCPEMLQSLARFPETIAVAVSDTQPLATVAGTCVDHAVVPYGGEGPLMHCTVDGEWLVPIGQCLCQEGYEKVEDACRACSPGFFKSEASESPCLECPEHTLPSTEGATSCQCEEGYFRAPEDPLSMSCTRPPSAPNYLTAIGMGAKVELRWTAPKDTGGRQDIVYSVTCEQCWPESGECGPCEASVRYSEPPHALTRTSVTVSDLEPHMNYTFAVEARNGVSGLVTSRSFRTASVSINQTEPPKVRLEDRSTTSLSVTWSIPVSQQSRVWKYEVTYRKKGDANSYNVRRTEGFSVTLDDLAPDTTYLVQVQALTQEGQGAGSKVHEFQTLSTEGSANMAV

T1 sequence (P08069 741-1367 limits assumed): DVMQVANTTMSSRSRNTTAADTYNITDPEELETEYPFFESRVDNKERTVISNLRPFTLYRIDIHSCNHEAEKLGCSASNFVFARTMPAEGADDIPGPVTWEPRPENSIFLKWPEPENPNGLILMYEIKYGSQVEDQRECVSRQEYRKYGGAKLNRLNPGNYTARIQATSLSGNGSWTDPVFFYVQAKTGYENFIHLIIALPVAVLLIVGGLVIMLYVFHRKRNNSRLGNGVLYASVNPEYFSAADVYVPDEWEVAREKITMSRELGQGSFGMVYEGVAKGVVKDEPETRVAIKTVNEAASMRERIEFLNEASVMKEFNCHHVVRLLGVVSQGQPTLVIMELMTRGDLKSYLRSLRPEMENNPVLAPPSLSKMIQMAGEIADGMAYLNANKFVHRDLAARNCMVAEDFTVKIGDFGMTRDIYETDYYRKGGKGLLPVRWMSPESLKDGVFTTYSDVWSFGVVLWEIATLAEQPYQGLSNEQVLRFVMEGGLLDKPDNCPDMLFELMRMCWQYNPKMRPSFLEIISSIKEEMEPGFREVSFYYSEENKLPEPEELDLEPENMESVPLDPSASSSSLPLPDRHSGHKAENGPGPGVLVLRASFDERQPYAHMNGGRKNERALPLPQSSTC
T1 sequence (P08069 31-736 partner limits assumed): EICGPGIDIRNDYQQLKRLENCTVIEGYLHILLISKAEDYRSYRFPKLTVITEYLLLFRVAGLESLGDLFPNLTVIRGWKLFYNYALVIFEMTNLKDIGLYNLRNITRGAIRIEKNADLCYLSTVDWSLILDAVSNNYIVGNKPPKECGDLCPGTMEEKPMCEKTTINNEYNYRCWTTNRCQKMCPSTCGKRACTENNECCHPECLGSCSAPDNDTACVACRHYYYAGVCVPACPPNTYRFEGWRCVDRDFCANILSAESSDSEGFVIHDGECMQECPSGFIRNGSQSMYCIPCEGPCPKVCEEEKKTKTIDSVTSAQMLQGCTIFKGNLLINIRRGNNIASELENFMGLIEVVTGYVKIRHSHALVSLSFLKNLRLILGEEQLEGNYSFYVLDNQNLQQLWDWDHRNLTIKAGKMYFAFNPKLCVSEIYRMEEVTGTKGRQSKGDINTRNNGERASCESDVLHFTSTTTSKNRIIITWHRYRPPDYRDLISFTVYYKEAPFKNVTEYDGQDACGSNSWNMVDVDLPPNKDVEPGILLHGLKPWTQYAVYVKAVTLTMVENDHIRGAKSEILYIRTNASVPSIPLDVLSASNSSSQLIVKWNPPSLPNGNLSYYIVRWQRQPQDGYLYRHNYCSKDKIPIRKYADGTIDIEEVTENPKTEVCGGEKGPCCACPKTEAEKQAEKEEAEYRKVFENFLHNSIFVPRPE

Compound: C[C@H](CCC(=O)O)[C@H]1CC[C@H]2[C@@H]3CC[C@@H]4C[C@H](O)CC[C@]4(C)[C@H]3CC[C@]12C [LCA, lithocholic acid]
- PC3 adhesion to ephrinA1-Fc ([1]; ephrinA1-Fc coated plates, increasing concentrations): dose-dependently inhibited
- aspecific PC3 cell adhesion ([1]; uncoated standard cell culture plates): neither ephrinA1-Fc nor LCA inhibited
- effect on VEGFR activity as agonist or antagonist [2]: failed to affect activity
- effect on IGFR1β activity as agonist or antagonist [3]: failed to affect activity
- inhibition of ephrinA1-Fc induced PC3 cell rounding ([4]; 10 µM): inactive
- inhibition of ephrinA1-Fc induced PC3 cell rounding ([4]; 100 µM): blocked cell rounding
- changes in PC3 cell morphology by compound alone ([4]; incubated with Fc for 30 minutes): Neither DMSO 0.25% nor LCA alone induced changes in cell morphology
- reversibility of binding (displacement with or without washing) [5]: The displacement was detected only where the washing was not performed
